Data: patent US7507727B2, “Substituted quinobenzoxazine analogs and methods of using thereof” (Cylene Pharmaceuticals, Inc., priority 2003, dated 2009)
pIC50: −log10 of the molar value. Read-outs that look alike come from different tables or passages of the source.

How the values were obtained:
HeLa cells = assay: MTS cell proliferation and/or cytotoxicity assay; format: cell-based, Human
Description: Cell culture. Human cervical epithelial cells (HeLa cells) were obtained from American Type Culture Collection (Manassas, Va.). Cells were grown in Eagle's minimum essential medium (MEM, Hyclone, Utah) supplemented with 2 mM Glutamine, 0.1 mM nonessential amino acid, 1 mM Na Pyruvate, 1.5 g/L NaHCO3, 50 mg/L gentamicin, and 10% fetal bovine serum (Hyclone, USA) in a humidified atmosphere of 5% CO2 at 37° C.
MTS assays. Antiproliferative effects of the compounds were tested by the CellTiter 96 AQueous assay (Promega, WI), which is a calorimetric assay for determining the number of viable cells. (See, e.g., Wang, L., et al., Methods Cell Sci (1996) 18:249-255). In one example, cells (4,500 cells/well) were seeded on 96 well flat bottom plates (Corning, N.Y.) in 100 μl of culture medium without any anticancer drug on day 0, and the culture medium was exchanged for that //contained anticancer drugs at various concentrations on day 1. After incubation for 3 days under normal growth conditions (on day 4), the monolayers were washed once in PBS, and the medium was switched to 100 μl of PBS in each of the 96 well plate. After mixing MTS and PMS at the ratio of 20:1, 20 μl of MTS/PMS solution was added to each of the 96 well plate and incubated for 4 hours in a humidified atmosphere of 5% CO2 at 37° C. The absorbance was read at 490 nm using FLUOstar Galaxy 96 well plate reader (BMG Labtechnologies, Germany). μM concentrations (MTS data) reported in Table 1 are concentrations at which 50% of antiproliferative cell response is seen.

[1] = biological target: c-Myc template DNA (c-myc quadruplex); assay: Quadruplex binding / stop assay (Taq polymerase arrest, capillary electrophoresis); settings: for pIC50: read-out: S DATA, Table 1D, stop assay data; for IC50: read-out: Stop Data c-Myc μM, concentration at which 50% of the DNA was arrested (arrested:full-length 1:1)
[2] = Homo sapiens, HeLa, HeLa cells, MTS, read-out: Hela MTS
[3] = concentration at which 50% of antiproliferative cell response is seen, 3 days incubation, read-out: MTS Data Hella
[4] = Homo sapiens, HeLa, 72 h, concentration at which 50% of antiproliferative cell response is seen, 3 days incubation, read-out: MTS Data Hella

pIC50 [1] | IC50 [1] [µM] | SMILES | pIC50 (HeLa cells; [2]) | pIC50 (HeLa cells; [3]) | pIC50 (HeLa cells; [4])
6.12 |  | CCN(CC)CCCC(C)NC(=O)c1cn2c3c(c(N4CC5CCCNC5C4)c(F)cc3c1=O)Oc1cc3ccccc3cc1-2 (centres unmarked) [compound 1727] | 6.44 |  | 
 | 0.62 | CN1CCCC1CCNC(=O)c1cn2c3c(c(N4CCC(N)C4)c(F)cc3c1=O)Oc1cc3ccccc3cc1-2 (centres unmarked) [compound 472] |  | 5.48 | 
 | 0.75 | CN(C)CCCCNc1c(F)cc2c(=O)c(C(=O)NCCC3CCCN3C)cn3c2c1Oc1cc2c(cc1-3)oc1ccccc12 (centres unmarked) [compound 366] |  |  | 5.43
 | 0.75 | CN1CCN(CCCNC(=O)c2cn3c4c(c(N5CCC(NC(=O)OC(C)(C)C)C5)c(F)cc4c2=O)Oc2cc4c(cc2-3)oc2ccccc24)CC1 (centres unmarked) [compound 383] |  |  | 6.43
 | 0.18 | NC(N)=NCCCCNC(=O)c1cn2c3c(c(N4CC[C@@H](N)C4)c(F)cc3c1=O)Oc1cc3ccccc3cc1-2 [compound 578] |  |  | 6.24
 | 0.375 | CN(C)CCCCNC(=O)c1cn2c3c(c(N4CC[C@@H](NC(=O)CCNCCCn5ccnc5)C4)c(F)cc3c1=O)Oc1cc3c(cc1-2)oc1ccccc13 [compound 500] |  |  | 5.25
 | 1 | CC(C)NCCCNC(=O)c1cn2c3c(c(N4CCC(NC(=O)OC(C)(C)C)C4)c(F)cc3c1=O)Oc1cc3ccccc3cc1-2 (centres unmarked) [compound 312] |  |  | 5.72
 | 0.18 | CN(C)CCCCNC(=O)c1cn2c3cc4c(cc3oc3c(NCCN5CCCC5)c(F)cc(c1=O)c32)c(=O)c1ccccc14 [compound 584] |  |  | 6.72
 | 0.375 | CN(C)CCCCNc1c(F)cc2c(=O)c(C(=O)NCCC3CCCN3C)cn3c4cc5c(cc4oc1c23)c(=O)c1ccccc15 (centres unmarked) [compound 501] |  |  | 5.38
 | 0.5 | CN1CCN(CCCNc2c(F)cc3c(=O)c(C(=O)NCCCn4ccnc4)cn4c3c2Oc2cc3c(cc2-4)oc2ccccc23)CC1 [compound 481] |  |  | 5.44
 | 0.375 | CCN(CC)CCCC(C)NC(=O)c1cn2c3c(c(N4CCC(N)C4)c(F)cc3c1=O)Oc1cc3ccccc3cc1-2 (centres unmarked) [compound 542] |  |  | 6.64
 | 3 | N[C@H]1CCN(c2c(F)cc3c(=O)c(C(=O)NCCN4CCCC4)cn4c3c2Oc2ccccc2-4)C1 [compound 35] |  | 6.68 | 
 | 1 | CCN(CC)CCCC(C)NC(=O)c1cn2c3c(c(N4CCC(c5cnccn5)C4)ccc3c1=O)Oc1cc3ccccc3cc1-2 (centres unmarked) [compound 309] |  |  | 5.52
 | 0.375 | CN1CCN(CC(=O)N[C@@H]2CCN(c3c(F)cc4c(=O)c(C(=O)NCCN5CCCC5)cn5c4c3Oc3cc4c(cc3-5)oc3ccccc34)C2)CC1 [compound 505] |  |  | 5.47
6.12 |  | NC1CCN(c2ccc3c(=O)c(C(=O)NCCCN4CCOCC4)cn4c3c2Oc2cc3ccccc3cc2-4)C1 (centres unmarked) [compound 1557] | 5.82 |  | 
 | 0.22 | O=C(NCCN1CCCC1)c1cn2c3cc4c(=O)c5ccccc5c(=O)c4cc3oc3c(NCCN4CCCC4)c(F)cc(c1=O)c32 [compound 568] |  |  | 5.39
6.43 |  | CC1(C)CC(NC(=O)c2cn3c4c(c(N5CCC(N)C5)ccc4c2=O)Oc2cc4ccccc4cc2-3)CC(C)(C)N1 (centres unmarked) [compound 1558] | 6.62 |  | 
 | 0.5 | CC1(C)CC(NC(=O)c2cn3c4c(c(N5CC6CCCNC6C5)c(F)cc4c2=O)Oc2cc4ccccc4cc2-3)CC(C)(C)N1 (centres unmarked) [compound 487] |  |  | 6.74
 | 0.5 | CC(C)(C)OC(=O)N[C@H]1CCN(c2c(F)cc3c(=O)c(C(=O)O)cn4c5cc6oc7cc([N+](=O)[O-])ccc7[nH]c6cc5oc2c34)C1 [compound 24] |  |  | 5.15
 | 0.58 | CN1CCCC1CCNC(=O)c1cn2c3c(c(N4CC[C@H](N)C4)c(F)cc3c1=O)Oc1cc3ccccc3cc1-2 (some centres unmarked) [compound 474] |  |  | 6.43
 | 1 | CN1CCCC1CCNC(=O)c1cn2c3c(c(N4CCC(N)C4)c(F)cc3c1=O)Oc1cc(-c3nc4ccccc4s3)ccc1-2 (centres unmarked) [compound 311] |  |  | 5.68
 | 0.25 | CN1CCN(CCCNC(=O)c2cn3c4c(c(N5CCC(N)C5)c(F)cc4c2=O)Oc2cc4c(cc2-3)oc2ccccc24)CC1 (centres unmarked) [compound 1467] |  |  | 6.46

pIC50 [1] | IC50 [1] [µM] | SMILES | pIC50 (HeLa cells; [2]) | pIC50 (HeLa cells; [3]) | pIC50 (HeLa cells; [4])
6.19 |  | N=C(N)NCCNC(=O)c1cn2c3c(c(N4CC5CCCNC5C4)c(F)cc3c1=O)Oc1cc3ccccc3cc1-2 (centres unmarked) [compound 1646] | 6.40 |  | 
 | 0.75 | CC(=O)N[C@@H]1CCN(c2c(F)cc3c(=O)c(C(=O)NCCCCN(C)C)cn4c3c2Oc2cc3c(cc2-4)oc2ccccc23)C1 [compound 374] |  |  | 5.48
6.12 |  | CN1CCCC1CCNC(=O)c1cn2c3c(c(NCCc4ccc(O)c(O)c4)c(F)cc3c1=O)Oc1cc3ccccc3cc1-2 (centres unmarked) [compound 1680] | 5.74 |  | 
 | 1.75 | N[C@H]1CCN(c2c(F)cc3c(=O)c(C(=O)NCCN4CCCC4)cn4c3c2Oc2ccccc2-4)C1 [compound 109] |  |  | 6.51
 | 0.75 | N[C@@H]1CCN(c2c(F)cc3c(=O)c(C(=O)NCCCN4CCOCC4)cn4c3c2Oc2cc3ccccc3cc2-4)C1 [compound 386] |  |  | 6.47
 | 0.375 | CN(C)CCCCNC(=O)c1cn2c3c(c(N4CC[C@@H](NC(=O)CCN5CCCCC5)C4)c(F)cc3c1=O)Oc1cc3c(cc1-2)oc1ccccc13 [compound 507] |  |  | 5.48
 | 0.375 | CN(C)/C=N/CCCCNC(=O)c1cn2c3c(c(N4CC[C@@H](N)C4)c(F)cc3c1=O)Oc1cc3ccccc3cc1-2 [compound 503] |  |  | 5.40
 | 0.375 | CN1CCCC1CCNC(=O)c1cn2c3c(c(N4CC[C@H](N)C4)c(N)cc3c1=O)Oc1cc3ccccc3cc1-2 (some centres unmarked) [compound 526] |  |  | 6.05
 | 3 | O=C(NCCN1CCCC1)c1cn2c3c(c(N4CCC(c5cnccn5)C4)c(F)cc3c1=O)Oc1ccccc1-2 (centres unmarked) [compound 32] |  |  | 6.22
 | 0.41 | CN1CCCC1CCNc1c(F)cc2c(=O)c(C(=O)NCCN3CCCC3)cn3c2c1Oc1c-3ccc2ccccc12 (centres unmarked) [compound 497] |  |  | 5.68
 | 0.9 | CN1CCN(c2c(F)cc3c(=O)c(C(=O)NCCN4CCCC4)cn4c5cc6c(=O)c7ccccc7c(=O)c6cc5oc2c34)CC1 [compound 340] |  |  | 5.07
 | 0.75 | CN1CCN(CCC(=O)N[C@@H]2CCN(c3c(F)cc4c(=O)c(C(=O)NCCC5CCCN5C)cn5c4c3Oc3cc4c(cc3-5)oc3ccccc34)C2)CC1 (some centres unmarked) [compound 360] |  |  | 5.35
 | 0.5 | CN1CCCC1CCNC(=O)c1cn2c3c(c(N4CC[C@@H](NC(=O)CCN5CCCCC5)C4)c(F)cc3c1=O)Oc1cc3c(cc1-2)oc1ccccc13 (some centres unmarked) [compound 484] |  |  | 5.51
 | 3 | CN1CCCC1CCNC(=O)c1cn2c3c(c(NC[C@@H]4CCCO4)c(F)cc3c1=O)Oc1cc3ccccc3cc1-2 (some centres unmarked) [compound 33] |  | 6.54 | 
 | 0.75 | CN1CCCC1CCNC(=O)c1cn2c3c(c(NCC4(O)CCCCC4)c(F)cc3c1=O)Oc1cc3ccccc3cc1-2 (centres unmarked) [compound 391] |  |  | 6.62
 | 0.375 | CN1CCCC1CCNc1c(F)cc2c(=O)c(C(=O)NCCN3CCCC3)cn3c4cc5c(cc4oc1c23)c(=O)c1ccccc15 (centres unmarked) [compound 527] |  |  | 6.10
 | 0.375 | O=C(NCCCN1CCOCC1)c1cn2c3cc4c(cc3oc3c(NCCN5CCCC5)c(F)cc(c1=O)c32)c(=O)c1ccccc14 [compound 502] |  |  | 5.40
 | 0.375 | CN1CCN(CCCNC(=O)c2cn3c4cc5c(cc4oc4c(NCCN6CCCC6)c(F)cc(c2=O)c43)c(=O)c2ccccc25)CC1 [compound 524] |  |  | 5.82
 | 0.75 | NC1CCN(c2c(F)cc3c(=O)c(C(=O)NCCc4cnc[nH]4)cn4c3c2Oc2cc3ccccc3cc2-4)C1 (centres unmarked) [compound 379] |  |  | 5.72
 | 1.75 | CCN(CC)C1CCN(c2c(F)cc3c(=O)c(C(=O)NCCC4CCCN4C)cn4c3c2Oc2cc3ccccc3cc2-4)C1 (centres unmarked) [compound 105] |  |  | 5.55
 | 0.75 | CN1CCCC1CCNC(=O)c1cn2c3c(c(NCCC4CCCN4C)c(F)cc3c1=O)Oc1cc3c(cc1-2)oc1ccccc13 (centres unmarked) [compound 372] |  |  | 5.47

SMILES | pIC50 [1] | IC50 [1] [µM] | pIC50 (HeLa cells; [2]) | pIC50 (HeLa cells; [3]) | pIC50 (HeLa cells; [4])
CN1CCCC1CCNC(=O)c1cn2c3c(c(NC4CN5CCC4CC5)c(F)cc3c1=O)Oc1cc3ccccc3cc1-2 (centres unmarked) [compound 486] |  | 0.5 |  |  | 6.41
CN1CCCC1CCNC(=O)c1cn2c3c(c(N[C@@H]4CN5CCC4CC5)c(F)cc3c1=O)Oc1cc3ccccc3cc1-2 (some centres unmarked) [compound 1497] | 6.30 |  | 6.41 |  | 
CN1CCCC1CCNC(=O)c1cn2c3c(c(N[C@H]4CN5CCC4CC5)c(F)cc3c1=O)Oc1cc3ccccc3cc1-2 (some centres unmarked) [compound 536] |  | 0.375 |  |  | 6.51
